In the supplement of paper PMC10307832:

What was measured:
[1] = compound: C1=CC2=C(C=C(C(=C2N=C1)O)N=NC3=CC4=C(C=C3)C=C(C=C4)S(=O)(=O)O)S(=O)(=O)O + CC(=O)Nc1cccc(-n2c(=O)n(C3CC3)c(=O)c3c(Nc4ccc(I)cc4F)n(C)c(=O)c(C)c32)c1 [Trametinib] (partner 0.02 µM); assay: relative viability (nuclei count vs DMSO), 5 days (fraction); higher = more cells survive
How it was run: (§1)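 Relative viability is defined as nuclei in treated wells over nuclei in vehicle wells. Duplicate plates were run and medians reported. Lung cancer cell lines in 1536-well plates were dosed by pin tool one day after seeding, with one drug or with a fixed anchor-drug dose plus five library-drug doses (not always all listed) in √10 steps, and nuclei were counted after 5 days.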

[2] = compound: O=C(NC1CCNCC1)c1n[nH]cc1NC(=O)c1c(Cl)cccc1Cl [AT-7519] + Cc1nc(Nc2ncc(C(=O)Nc3c(C)cccc3Cl)s2)cc(N2CCN(CCO)CC2)n1 [Dasatinib] (partner 0.075 µM); assay: as above
How it was run: as §1

Cell Line | relative viability ([1]; first compound 0.08 µM) | relative viability ([1]; first compound 0.253 µM) | relative viability ([1]; first compound 0.8 µM) | relative viability ([1]; first compound 2.53 µM) | relative viability ([1]; first compound 8 µM) | relative viability ([2]; first compound 0.01 µM) | relative viability ([2]; first compound 0.03162 µM) | relative viability ([2]; first compound 0.3162 µM) | relative viability ([2]; first compound 1 µM)
HCC-366 | 0.402 | 0.342 | 0.398 | 0.432 | 0.302 | 0.729 | 0.571 | 0.435 | 0.308
EMC-BAC-2 | 0.964 | 0.853 | 0.912 | 0.997 | 0.911 | 0.358 | 0.327 | 0.296 | 0.227
NCI-H2405 | 0.635 | 0.597 | 0.599 | 0.686 | 0.687 | 0.203 | 0.216 | 0.199 | 0.219
NCI-H358 | 0.158 | 0.128 | 0.142 | 0.136 | 0.144 | 0.15 | 0.163 | 0.161 | 0.119
NCI-H1944 | 0.415 | 0.385 | 0.416 | 0.474 | 0.366 | 0.205 | 0.198 | 0.215 | 0.124
NCI-H1648 | – | 0.57 | – | – | 0.59 | – | – | – | –
EPLC-272H | 0.358 | 0.276 | 0.277 | 0.287 | 0.282 | 0.325 | 0.339 | 0.382 | 0.248
NCI-H1915 | 0.268 | 0.299 | 0.288 | 0.301 | 0.28 | 0.215 | 0.316 | 0.334 | 0.274
NCI-H596 | 0.939 | 0.751 | 0.77 | 0.795 | 0.681 | 0.586 | 0.501 | 0.629 | 0.612
NCI-H322M | 0.535 | 0.544 | 0.566 | 0.504 | 0.528 | 0.257 | 0.257 | 0.226 | 0.275
NCI-H2228 | 0.81 | 0.453 | 0.603 | 0.443 | 0.703 | 0.407 | 0.464 | 0.516 | 0.352
NCI-H2342 | 0.82 | 0.884 | 0.943 | 0.808 | 0.764 | 0.328 | 0.277 | 0.314 | 0.313
NCI-H647 | 0.584 | 0.429 | 0.426 | 0.54 | 0.518 | 0.184 | 0.23 | 0.195 | 0.131
SK-MES-1 | 0.514 | 0.54 | 0.587 | 0.585 | 0.548 | 0.336 | 0.31 | 0.405 | 0.217
NCI-H2170 | 1.06 | 0.856 | 0.83 | 0.984 | 0.927 | 0.593 | 0.576 | 0.626 | 0.558
NCI-H2085 | 0.538 | 0.512 | 0.557 | 0.582 | 0.433 | 0.219 | 0.242 | 0.256 | 0.218
SW 1573 | 0.514 | 0.477 | 0.608 | 0.564 | 0.0865 | 0.762 | 0.466 | 0.255 | 0.0794
NCI-H727 | 0.344 | 0.398 | 0.351 | 0.356 | 0.335 | 0.392 | 0.401 | 0.257 | 0.135

Cell Line | relative viability ([1]; first compound 0.08 µM) | relative viability ([1]; first compound 0.253 µM) | relative viability ([1]; first compound 0.8 µM) | relative viability ([1]; first compound 2.53 µM) | relative viability ([1]; first compound 8 µM) | relative viability ([2]; first compound 0.01 µM) | relative viability ([2]; first compound 0.03162 µM) | relative viability ([2]; first compound 0.3162 µM) | relative viability ([2]; first compound 1 µM)
NCI-H441 | 0.558 | 0.464 | 0.435 | 0.341 | 0.476 | 0.574 | 0.654 | 0.421 | 0.324
LOU-NH91 | 0.841 | 0.77 | 0.759 | 0.733 | 0.797 | 0.613 | 0.6 | 0.604 | 0.511
NCI-H3122 | 0.218 | 0.225 | 0.227 | 0.242 | 0.225 | 0.917 | 0.805 | 0.809 | 0.354
NCI-H460 | 0.187 | 0.0935 | 0.138 | 0.141 | 0.169 | 0.545 | 0.558 | 0.438 | 0.243
NCI-H650 | 0.947 | 0.947 | 0.875 | 0.948 | 0.894 | 0.437 | 0.423 | 0.465 | 0.488
NCI-H661 | 0.627 | 0.532 | 0.568 | 0.625 | 0.613 | 0.732 | 0.849 | 0.71 | 0.392
NCI-H1793 | 0.53 | 0.387 | 0.452 | 0.347 | 0.348 | 0.319 | 0.361 | 0.407 | 0.247
NCI-H1734 | 0.728 | 0.654 | 0.687 | 0.72 | 0.694 | 0.445 | 0.421 | 0.391 | 0.31
LXF-289 | 0.718 | 0.682 | 0.638 | 0.679 | 0.62 | 0.219 | 0.232 | 0.222 | 0.235
H3255 | 0.588 | 0.614 | 0.66 | 0.654 | 0.624 | 0.441 | 0.417 | 0.409 | 0.313
201T | 0.721 | 0.731 | 0.713 | 0.709 | 0.693 | 0.586 | 0.528 | 0.609 | 0.662
NCI-H2126 | 0.568 | 0.539 | 0.56 | 0.606 | 0.555 | 0.658 | 0.626 | 0.497 | 0.357
HOP-62 | 0.428 | 0.392 | 0.452 | 0.37 | 0.359 | 0.653 | 0.699 | 0.731 | 0.626
CAL-12T | 0.369 | 0.332 | 0.318 | 0.332 | 0.28 | 0.532 | 0.404 | 0.214 | 0.0899
NCI-H520 | 0.784 | 0.6 | 0.768 | 0.625 | 0.807 | 0.244 | 0.241 | 0.174 | 0.166
NCI-H1755 | 0.761 | 0.754 | 0.739 | 0.761 | 0.732 | 0.465 | 0.404 | 0.465 | 0.409
NCI-H2023 | 0.527 | 0.58 | 0.558 | 0.589 | 0.637 | 0.636 | 0.548 | 0.485 | 0.231
NCI-H2009 | 0.316 | 0.3 | 0.294 | 0.288 | 0.24 | 0.282 | 0.279 | 0.234 | 0.157
